Measured values taken from PubChem BioAssay AID248 (DTP/NCI, 2004).
“And” between values parts separate entries of the source, which are not always exact repeats. Identical values can stand only once. Toxic doses and inconclusive results are not listed.

System: L1210 leukemia ip in BDF1 mice, survival T/C
Assay: NCI In Vivo Anticancer Drug Screen. Data for tumor model L1210 Leukemia (intraperitoneal) in B6D2F1 (BDF1) mice
Conditions: endpoint: mean survival time, higher = longer survival
Method in brief: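 Survival endpoint. Drug-treated group vs vehicle group, expressed as T divided by C. Tumor passaged by transplantation.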

[1] = dose: 12.5 mg/kg/injection, schedule: Q01DX009 (ip), vehicle: saline
[2] = dose: 25.0 mg/kg/injection, schedule: Q01DX001 (ip), vehicle: saline
[3] = dose: 25.0 mg/kg/injection, schedule: Q01DX009 (ip), vehicle: saline
[4] = dose: 50.0 mg/kg/injection, schedule: Q01DX001 (ip), vehicle: saline
[5] = dose: 50.0 mg/kg/injection, schedule: Q01DX009 (ip), vehicle: saline
[6] = dose: 100.0 mg/kg/injection, schedule: Q01DX001 (ip), vehicle: saline
[7] = dose: 100.0 mg/kg/injection, schedule: Q01DX009 (ip), vehicle: Klucel (hydroxypropylcellulose) (HPC)
[8] = dose: 200.0 mg/kg/injection, schedule: Q01DX009 (ip), vehicle: Klucel (hydroxypropylcellulose) (HPC)
[9] = dose: 6.25 mg/kg/injection, schedule: Q01DX009 (ip), vehicle: saline
[10] = dose: 25.0 mg/kg/injection, schedule: Q04DX003 (ip), vehicle: saline
[11] = dose: 50.0 mg/kg/injection, schedule: Q04DX003 (ip), vehicle: saline
[12] = dose: 200.0 mg/kg/injection, schedule: Q01DX001 (ip), vehicle: saline
[13] = dose: 100.0 mg/kg/injection, schedule: Q01DX009 (ip), vehicle: saline with Tween-80
[14] = dose: 100.0 mg/kg/injection, schedule: Q04DX003 (ip), vehicle: saline with Tween-80
[15] = dose: 200.0 mg/kg/injection, schedule: Q01DX009 (ip), vehicle: saline with Tween-80
[16] = dose: 200.0 mg/kg/injection, schedule: Q04DX003 (ip), vehicle: saline with Tween-80
[17] = dose: 400.0 mg/kg/injection, schedule: Q01DX009 (ip), vehicle: saline with Tween-80
[18] = dose: 400.0 mg/kg/injection, schedule: Q04DX003 (ip), vehicle: saline with Tween-80
[19] = dose: 100.0 mg/kg/injection, schedule: Q04DX002 (ip), vehicle: Klucel (hydroxypropylcellulose) (HPC)
[20] = dose: 200.0 mg/kg/injection, schedule: Q04DX002 (ip), vehicle: Klucel (hydroxypropylcellulose) (HPC)
[21] = dose: 400.0 mg/kg/injection, schedule: Q01DX001 (ip), vehicle: saline
[22] = dose: 50.0 mg/kg/injection, schedule: Q04DX003 (ip), vehicle: saline with Tween-80
[23] = dose: 100.0 mg/kg/injection, schedule: Q04DX002 (ip), vehicle: saline with Tween-80
[24] = dose: 200.0 mg/kg/injection, schedule: Q04DX002 (ip), vehicle: saline with Tween-80
[25] = dose: 400.0 mg/kg/injection, schedule: Q04DX002 (ip), vehicle: saline with Tween-80

CN(C)c1ccc2nc3ccc(=[N+](C)C)cc-3sc2c1
T/C (dose: 5.0 mg/kg/injection, schedule: Q01DX Z (ip), vehicle: carboxymethylcellulose (CMC)): 93 % of control and 90 % of control | T/C (dose: 10.0 mg/kg/injection, schedule: Q01DX Z (ip), vehicle: carboxymethylcellulose (CMC)): 100 % of control and 92 % of control | T/C [1]: 107 % of control | T/C (dose: 20.0 mg/kg/injection, schedule: Q01DX Z (ip), vehicle: carboxymethylcellulose (CMC)): 98 % of control and 92 % of control | T/C [2]: 102 % of control | T/C [3]: 94 % of control | T/C (dose: 40.0 mg/kg/injection, schedule: Q01DX Z (ip), vehicle: carboxymethylcellulose (CMC)): 105 % of control | T/C [4]: 97 % of control | T/C [5]: 103 % of control | T/C [6]: 108 % of control

CCCCCN(C)N=Nc1ccccc1C(N)=O
T/C (dose: 100.0 mg/kg/injection, schedule: Q01DX001 (ip), vehicle: other): 106 % of control | T/C [7]: 114 % of control | T/C (dose: 100.0 mg/kg/injection, schedule: Q04DX003 (ip), vehicle: Klucel (hydroxypropylcellulose) (HPC)): 109 % of control | T/C (dose: 200.0 mg/kg/injection, schedule: Q01DX001 (ip), vehicle: other): 112 % of control | T/C [8]: 115 % of control | T/C (dose: 200.0 mg/kg/injection, schedule: Q04DX003 (ip), vehicle: Klucel (hydroxypropylcellulose) (HPC)): 101 % of control | T/C (dose: 400.0 mg/kg/injection, schedule: Q01DX001 (ip), vehicle: other): 115 % of control | T/C (dose: 400.0 mg/kg/injection, schedule: Q04DX003 (ip), vehicle: Klucel (hydroxypropylcellulose) (HPC)): 112 % of control

O=C1OC(c2ccccc2)=C/C1=C/c1ccc(Cl)cc1
T/C (dose: 25.0 mg/kg/injection, schedule: Q04DX003 (ip), vehicle: alcohol): 88 % of control | T/C (dose: 50.0 mg/kg/injection, schedule: Q04DX003 (ip), vehicle: alcohol): 90 % of control | T/C (dose: 100.0 mg/kg/injection, schedule: Q01DX001 (ip), vehicle: alcohol): 86 % of control | T/C (dose: 100.0 mg/kg/injection, schedule: Q04DX003 (ip), vehicle: alcohol): 87 % of control | T/C (dose: 150.0 mg/kg/injection, schedule: Q01DX009 (ip), vehicle: alcohol): 89 % of control | T/C (dose: 150.0 mg/kg/injection, schedule: Q04DX003 (ip), vehicle: alcohol): 87 % of control | T/C (dose: 225.0 mg/kg/injection, schedule: Q01DX009 (ip), vehicle: alcohol): 86 % of control | T/C (dose: 225.0 mg/kg/injection, schedule: Q04DX003 (ip), vehicle: alcohol): 91 % of control | T/C (dose: 335.0 mg/kg/injection, schedule: Q01DX009 (ip), vehicle: alcohol): 107 % of control | T/C (dose: 335.0 mg/kg/injection, schedule: Q04DX003 (ip), vehicle: alcohol): 90 % of control

NNC(=O)OCCO
T/C [3]: 103 % of control | T/C [5]: 104 % of control

CCCC(Cc1ccccc1)N1CCCC1 (configuration not stated)
T/C (dose: 3.12 mg/kg/injection, schedule: Q01DX009 (ip), vehicle: saline): 103 % of control | T/C [9]: 103 % of control | T/C [1]: 97 % of control | T/C [3]: 103 % of control | T/C [10]: 92 % of control | T/C [11]: 95 % of control

CCC(c1ccc(OC)cc1)C(CC)c1ccc(OCCN2CCCC2)cc1 (configuration not stated)
T/C (dose: 12.5 mg/kg/injection, schedule: Q01DX001 (ip), vehicle: saline): 94 % of control | T/C [2]: 94 % of control | T/C [4]: 95 % of control | T/C [6]: 97 % of control

c1ccc2cc(CCSSCCc3ccc4ccccc4c3)ccc2c1
T/C [12]: 87 % of control

O=C1CSCc2nc3ccccc3n21
T/C [13]: 97 % of control | T/C [14]: 106 % of control | T/C [15]: 100 % of control | T/C [16]: 103 % of control | T/C [17]: 100 % of control | T/C [18]: 97 % of control

O=[N+]([O-])c1cc(S(=O)(=O)c2ccc(S)c([N+](=O)[O-])c2)ccc1S
T/C [19]: 89 % of control | T/C [20]: 92 % of control | T/C (dose: 400.0 mg/kg/injection, schedule: Q04DX002 (ip), vehicle: Klucel (hydroxypropylcellulose) (HPC)): 92 % of control

CCCCC(CC1CCCCC1)C(=O)O (configuration not stated)
T/C (dose: 100.0 mg/kg/injection, schedule: Q01DX001 (ip), vehicle: saline with Tween-80): 91 % of control | T/C (dose: 200.0 mg/kg/injection, schedule: Q01DX001 (ip), vehicle: saline with Tween-80): 95 % of control | T/C (dose: 400.0 mg/kg/injection, schedule: Q01DX001 (ip), vehicle: saline with Tween-80): 88 % of control

CSc1cc(N)nc2c1ncn2C1OC(CO)C(O)C1O (configuration not stated)
T/C [6]: 113 % of control | T/C [12]: 93 % of control | T/C [21]: 103 % of control

CC(=O)Nc1ccc(S(=O)(=O)N(C)Cc2ccccc2)cc1
T/C [7]: 94 % of control | T/C [8]: 102 % of control | T/C (dose: 400.0 mg/kg/injection, schedule: Q01DX009 (ip), vehicle: Klucel (hydroxypropylcellulose) (HPC)): 107 % of control

CSC(S(C)(=O)=O)S(C)(=O)=O
T/C [14]: 90 % of control | T/C [16]: 96 % of control | T/C [18]: 98 % of control

S=C(Nc1ccc(Cl)c(Cl)c1)Sc1ccccc1
T/C [22]: 95 % of control | T/C [14]: 91 % of control

CCOc1ccccc1/C=C1N=C(/C=C/c2ccccc2)OC\1=O
T/C [23]: 92 % of control | T/C [24]: 89 % of control | T/C [25]: 97 % of control

O=C(Cc1ccccc1)C(c1ccccc1)C(c1ccccc1)c1ccccc1 (configuration not stated)
T/C [23]: 96 % of control | T/C [24]: 111 % of control | T/C [25]: 107 % of control

COC(=O)C1CCC(NC(=O)N(CCCl)N=O)CC1 (configuration not stated)
T/C (dose: 13.0 mg/kg/injection, schedule: Q01DX001 (ip), vehicle: Klucel (hydroxypropylcellulose) (HPC)): 212 % of control and 188 % of control | T/C (dose: 20.0 mg/kg/injection, schedule: Q01DX001 (ip), vehicle: Klucel (hydroxypropylcellulose) (HPC)): 270 % of control and 283 % of control | T/C (dose: 30.0 mg/kg/injection, schedule: Q01DX001 (ip), vehicle: Klucel (hydroxypropylcellulose) (HPC)): 283 % of control | T/C (dose: 44.0 mg/kg/injection, schedule: Q01DX001 (ip), vehicle: Klucel (hydroxypropylcellulose) (HPC)): 248 % of control and 282 % of control | T/C (dose: 67.0 mg/kg/injection, schedule: Q01DX001 (ip), vehicle: Klucel (hydroxypropylcellulose) (HPC)): 266 % of control | T/C (dose: 100.0 mg/kg/injection, schedule: Q01DX001 (ip), vehicle: Klucel (hydroxypropylcellulose) (HPC)): 104 % of control

CN(C)CC/C=C1\c2ccccc2CN(C)c2ccccc21
T/C (dose: 6.25 mg/kg/injection, schedule: Q01DX009 (ip), vehicle: saline with Tween-80): 94 % of control | T/C [9]: 108 % of control | T/C (dose: 12.5 mg/kg/injection, schedule: Q01DX009 (ip), vehicle: saline with Tween-80): 104 % of control | T/C [1]: 107 % of control | T/C (dose: 25.0 mg/kg/injection, schedule: Q01DX009 (ip), vehicle: saline with Tween-80): 88 % of control | T/C [3]: 94 % of control | T/C (dose: 25.0 mg/kg/injection, schedule: Q04DX003 (ip), vehicle: saline with Tween-80): 88 % of control | T/C [10]: 97 % of control | T/C [5]: 94 % of control | T/C [22]: 96 % of control | T/C [11]: 97 % of control | T/C (dose: 100.0 mg/kg/injection, schedule: Q01DX009 (ip), vehicle: saline): 105 % of control | T/C [14]: 94 % of control | T/C (dose: 100.0 mg/kg/injection, schedule: Q04DX003 (ip), vehicle: saline): 101 % of control

CCCCCCC(O)CCCCCCCCCCC(=O)OC (configuration not stated)
T/C [13]: 98 % of control | T/C [15]: 88 % of control | T/C [17]: 92 % of control

Cc1cc2c(cc1C)C(=O)C(=O)N2
T/C [4]: 98 % of control | T/C [6]: 107 % of control | T/C [12]: 104 % of control | T/C [21]: 98 % of control

COC(=O)C(C)=O
T/C [13]: 103 % of control | T/C [15]: 101 % of control | T/C [17]: 98 % of control

O=C(Nc1ccccc1)Oc1c(Cl)c(Cl)c(Cl)c(Cl)c1Cl
T/C [19]: 98 % of control | T/C [20]: 104 % of control
